The values that follow come from patent publication US8637525B2, “Compounds for the reduction of beta-amyloid production” (Bristol-Myers Squibb Company, priority 2009, dated 2014).

The structures appear in SMILES notation. Counter-ions that a name gives are not always drawn.

In general, IC50 refers to the concentration that gives 50% inhibition.

For one assay, the system named is Aβ1-42 production. The experiment in a line: Cellular assay for inhibition of Aβ1-42 production (H4 APP751 SWE clone 8.20). The format is cell-based. Conditions: 19 h, H4 APP751 SWE clone 8.20 cells, 19 h incubation; class symbols; read-out: Activity Rating (Aβ42 cellular IC50). The gist of the method: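 Cells incubate with compound for 19 h (37 °C, 5% CO2), the plate is briefly spun, and antibody mix is added straight to the wells: Wallac-conjugated 565 against the Aβ42 C-terminal neoepitope and APC-conjugated 26D6 against the Aβ N-terminus. After overnight sealing at 4 °C, signal is counted and IC50 fitted.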
In the case of `CCNc1nc(Nc2ccc(-n3ncnc3C)c(F)c2)nc2c1CN(CC(F)F)CC2c1ccccc1` (centres unmarked) [Example 194, 6-(2,2-difluoroethyl)-N4-ethyl-N2-(3-fluoro-4-(5-methyl-1H-1,2,4-triazol-1-yl)phenyl)-8-phenyl-5,6,7,8-tetrahydropyrido[4,3-d]pyrimidine-2,4-diamine], the IC50 fell in the range of 10 to 100 nM.
On the same count and under the same terms, the result for `CNc1nc(Nc2ccc(-n3ncnc3C)c(F)c2)nc2c1COC2c1ccc(F)cc1` (racemic) [Example 82, N2-(3-fluoro-4-(5-methyl-1H-1,2,4-triazol-1-yl)phenyl)-7-(4-fluorophenyl)-N4-methyl-5,7-dihydrofuro[3,4-d]pyrimidine-2,4-diamine, TFA] reads 10 to 100 nM; that for `COc1cc(Nc2nc3c(c(N4CC(F)(F)C4)n2)COCC3c2ccc(F)cc2)ccc1-n1cnc(Cl)c1` (racemic) [Example 63, N-(4-(4-chloro-1H-imidazol-1-yl)-3-methoxyphenyl)-4-(3,3-difluoroazetidin-1-yl)-8-(4-fluorophenyl)-7,8-dihydro-5H-pyrano[4,3-d]pyrimidin-2-amine], 10 to 100 nM; that for `COc1cc(Nc2nc3c(c(N4CC(F)(F)C4)n2)COC3c2ccc(F)cc2)ccc1-n1cnc(Cl)c1` (centres unmarked) [Example 80A, N-(4-(4-chloro-1H-imidazol-1-yl)-3-methoxyphenyl)-4-(3,3-difluoroazetidin-1-yl)-7-(4-fluorophenyl)-5,7-dihydrofuro[3,4-d]pyrimidin-2-amine], 10 to 100 nM.
In the case of `COc1cc(Nc2nc3c(c(N(C)C)n2)COCC3c2ccccc2)ccc1-n1cnc(Cl)c1` (racemic) [Example 53, N^2-(4-(4-Chloro-1H-imidazol-1-yl)-3-methoxyphenyl)-N^4,N^4-dimethyl-8-phenyl-7,8-dihydro-5H-pyrano[4,3-d]pyrimidine-2,4-diamine], the IC50 was in the range of 10 to 100 nM.
On the same count and under the same terms, in the case of `CCNc1nc(Nc2ccc(-n3cnc(Cl)c3)c(OC)c2)nc2c1CN(S(=O)(=O)C1CC1)CC2c1ccccc1` (centres unmarked) [Example 136, N2-(4-(4-chloro-1H-imidazol-1-yl)-3-methoxyphenyl)-6-(cyclopropylsulfonyl)-N4-ethyl-8-phenyl-5,6,7,8-tetrahydropyrido[4,3-d]pyrimidine-2,4-diamine] it was 1.5 to 9.9 nM.
For `CNc1nc(Nc2ccc(-n3cnc(C)n3)c(OC)c2)nc2c1CC[C@H]2c1c(F)cc(F)cc1F` (single isomer, unassigned) [Example 270A], the IC50 was 1.5 to 9.9 nM.
Turning to `CCNc1nc(Nc2ccc(-n3ncnc3C)c(F)c2)nc2c1CN(C(=O)C1CC1)CC2c1ccccc1` (centres unmarked) [Example 144, cyclopropyl(4-(ethylamino)-2-(3-fluoro-4-(5-methyl-1H-1,2,4-triazol-1-yl)phenylamino)-8-phenyl-7,8-dihydropyrido[4,3-d]pyrimidin-6(5H)-yl)methanone], the IC50 was in the range of 10 to 100 nM.
With `CNc1nc(Nc2ccc(C(C)=O)cc2)nc2c1CCC2c1ccccc1` (centres unmarked) [Example 257, 1-(4-(4-(methylamino)-7-phenyl-6,7-dihydro-5H-cyclopenta[d]pyrimidin-2-ylamino)phenyl)ethanone], the IC50 fell in the range of 10 to 100 nM.
`CNc1nc(Nc2ccc(C(C)(C)C)cc2)nc2c1CCC2c1ccccc1` (centres unmarked) [Example 234, N2-(4-tert-butylphenyl)-N4-methyl-7-phenyl-6,7-dihydro-5H-cyclopenta[d]pyrimidine-2,4-diamine]: the IC50 was > 1000 nM.
On the same count and under the same terms, in the case of `COc1cc(Nc2nc3c(c(N4CCC(C(F)(F)F)C4)n2)CCC3c2ccc(F)cc2)ccc1-n1cnc(Cl)c1` (racemic) [Example 41, N-(4-(4-chloro-1H-imidazol-1-yl)-3-methoxyphenyl)-7-(4-fluorophenyl)-4-(3-(trifluoromethyl)pyrrolidin-1-yl)-6,7-dihydro-5H-cyclopenta[d]pyrimidin-2-amine] it was 10 to 100 nM.
For the compound `CNc1nc(Nc2ccc(-n3cnc(Cl)c3)c(OC)c2)nc2c1CN(S(C)(=O)=O)CC2c1ccccc1` (racemic) [Example 129, N2-(4-(4-chloro-1H-imidazol-1-yl)-3-methoxyphenyl)-N4-methyl-6-(methylsulfonyl)-8-phenyl-5,6,7,8-tetrahydropyrido[4,3-d]pyrimidine-2,4-diamine], the IC50 lay in the range of 10 to 100 nM.
Still for that read-out and setting: in the case of `COc1cc(Nc2nc3c(c(N4CCC(O)(C(F)(F)F)C4)n2)CCC3c2ccc(F)cc2)ccc1-n1cnc(Cl)c1` (single isomer, unassigned) [Example 27, 1-(2-(4-(4-chloro-1H-imidazol-1-yl)-3-methoxyphenylamino)-7-(4-fluorophenyl)-6,7-dihydro-5H-cyclopenta[d]pyrimidin-4-yl)-3-(trifluoromethyl)pyrrolidin-3-ol] it was 10 to 100 nM.
The same measure, in the same setting: in the case of `CCNc1nc(Nc2ccc(-n3cnc(Cl)c3)c(OC)c2)nc2c1CN(CC(F)F)CC2c1ccccc1` (centres unmarked) [Example 197B, N4-ethyl-N2-(3-methoxy-4-(4-chloro-1H-13-imidazol-1-yl)phenyl)-8-phenyl-6-(2,2-difluoroethyl)-5,6,7,8-tetrahydropyrido[4,3-d]pyrimidine-2,4-diamine] it was 1.5 to 9.9 nM.

Staying with this assay, now noted: 19 h, H4 APP751 SWE clone 8.20 cells, 19 h incubation; read-out: Activity Rating (Aβ42 cellular IC50), numeric value.
Consider `CCNc1nc(Nc2ccc(-n3cnc(Cl)c3)c(OC)c2)nc2c1COCC2c1ccc(F)c(F)c1` (racemic) [Example 113, N2-(4-(4-chloro-1H-imidazol-1-yl)-3-methoxyphenyl)-8-(3,4-difluorophenyl)-N4-ethyl-7,8-dihydro-5H-pyrano[4,3-d]pyrimidine-2,4-diamine, TFA], for which the IC50 turned out to be 5.7 nM.
On the same count and under the same terms, the result for `CNc1nc(Nc2cnc(-n3cnc(Cl)c3)c(OC)c2)nc2c1CCC2c1cc(F)c(F)c(F)c1` (centres unmarked) [Example 105, N^2-(6-(4-Chloro-1H-imidazol-1-yl)-5-methoxypyridin-3-yl)-N^4-methyl-7-(3,4,5-trifluorophenyl)-6,7-dihydro-5H-cyclopenta[d]pyrimidine-2,4-diamine] reads 8.8 nM.

Staying with this assay, now noted: H4 APP751 SWE clone 8.20 cells, 19 h incubation; class symbols; read-out: Activity Rating (Aβ42 cellular IC50).
Take `CNc1nc(Nc2ccc(-n3ncnc3C)c(OC)c2)nc2c1CN(C)CC2c1ccc(F)cc1` (centres unmarked) [Example 199B, 8-(4-fluorophenyl)-N2-(3-methoxy-4-(5-methyl-1H-1,2,4-triazol-1-yl)phenyl)-N4,6-dimethyl-5,6,7,8-tetrahydropyrido[4,3-d]pyrimidine-2,4-diamine]: the IC50 was in the range of 1.5 to 9.9 nM.
Consider `CNc1nc(Nc2ccc(-n3cnc(Cl)c3)c(OC)c2)nc2c1CCC2c1ccc(Cl)cc1` (single isomer, unassigned) [Example 94A, N^2-(4-(4-chloro-1H-imidazol-1-yl)-3-methoxyphenyl)-7-(4-chlorophenyl)-N^4-methyl-6,7-dihydro-5H-cyclopenta[d]pyrimidine-2,4-diamine], for which the IC50 was in the range of 1.5 to 9.9 nM.
As for `COCC(Nc1nc(Nc2ccc(-n3cnc(Cl)c3)c(OC)c2)nc2c1CCC2c1ccc(F)cc1)C1CC1` (single isomer, unassigned) [Example 45C, N2-(4-(4-chloro-1H-imidazol-1-yl)-3-methoxyphenyl)-N4-(1-cyclopropyl-2-methoxyethyl)-7-(4-fluorophenyl)-6,7-dihydro-5H-cyclopenta[d]pyrimidine-2,4-diamine], the IC50 was 10 to 100 nM.
Regarding `COc1cc(Nc2nc3c(c(N(C)C)n2)CCCC3c2ccc(F)cc2)ccc1-n1cnc(Cl)c1` (single isomer, unassigned) [Example 127B, N^2-(4-(4-chloro-1H-imidazol-1-yl)-3-methoxyphenyl)-8-(4-fluorophenyl)-N^4,N^4-dimethyl-5,6,7,8-tetrahydroquinazoline-2,4-diamine], the IC50 fell in the range of 10 to 100 nM.
For `CNc1nc(Nc2ccc(-n3cnc(Cl)c3)c(OC)c2)nc2c1CCC2c1cc(F)c(F)c(F)c1` (single isomer, unassigned) [Example 103B, N^2-(4-(4-chloro-1H-imidazol-1-yl)-3-methoxyphenyl)-N^4-methyl-7-(3,4,5-trifluorophenyl)-6,7-dihydro-5H-cyclopenta[d]pyrimidine-2,4-diamine], the IC50 is 10 to 100 nM.
On the same count and under the same terms, the result for `COc1cc(Nc2nc3c(c(N(C)C)n2)COCC3c2ccc(F)cc2)ccc1-n1cnc(Cl)c1` (centres unmarked) [Example 61A, N2-(4-(4-chloro-1H-imidazol-1-yl)-3-methoxyphenyl)-8-(4-fluorophenyl)-N4,N4-dimethyl-7,8-dihydro-5H-pyrano[4,3-d]pyrimidine-2,4-diamine] reads 1.5 to 9.9 nM; that for `CNc1nc(Nc2ccc(-n3ncnc3C)c(OC)c2)nc2c1CN(C)CC2c1ccc(F)cc1` (centres unmarked) [Example 199A, 8-(4-fluorophenyl)-N2-(3-methoxy-4-(5-methyl-1H-1,2,4-triazol-1-yl)phenyl)-N4,6-dimethyl-5,6,7,8-tetrahydropyrido[4,3-d]pyrimidine-2,4-diamine], 100 to 1000 nM; that for `COc1cc(Nc2nc3c(c(N(C)C)n2)COCC3c2ccc(F)cc2)ccc1-n1cnc(Cl)c1` (centres unmarked) [Example 61B, N2-(4-(4-chloro-1H-imidazol-1-yl)-3-methoxyphenyl)-8-(4-fluorophenyl)-N4,N4-dimethyl-7,8-dihydro-5H-pyrano[4,3-d]pyrimidine-2,4-diamine], 10 to 100 nM.
For the compound `COc1cc(Nc2nc3c(c(N4CCC(N(C)C)C4)n2)CCC3c2ccc(F)cc2)ccc1-n1cnc(Cl)c1` (single isomer, unassigned) [Example 29B, N-(4-(4-chloro-1H-imidazol-1-yl)-3-methoxyphenyl)-4-(3-(dimethylamino)pyrrolidin-1-yl)-7-(4-fluorophenyl)-6,7-dihydro-5H-cyclopenta[d]pyrimidin-2-amine], the IC50 fell in the range of 10 to 100 nM.

The assay is the same for the next values; noted with them: H4 APP751 SWE clone 8.20 cells, 19 h incubation; read-out: Activity Rating (Aβ42 cellular IC50), numeric value.
`CCNc1nc(Nc2ccc(-n3cnc(C)n3)c(F)c2)nc2c1CN(CC(F)F)CC2c1ccccc1` (centres unmarked) [Example 195A, 6-(2,2-difluoroethyl)-N4-ethyl-N2-(3-fluoro-4-(3-methyl-1H-1,2,4-triazol-1-yl)phenyl)-8-phenyl-5,6,7,8-tetrahydropyrido[4,3-d]pyrimidine-2,4-diamine]: the IC50 turned out to be 26 nM.
